Laboratory results taken from US10137239B2, “Systems and methods for monitoring time based photo active agent delivery or photo active marker presence” (Avedro, Inc., priority 2011, dated 2018).

Assay: Effect of a quenching agent on Riboflavin fluorescence in the eye after Riboflavin pre-soak
Design: species or system porcine
Conditions: 1% ascorbic acid drops for 5, 10, 15 min after 30 min pre-soak with 0.1% Riboflavin-5-phosphate in saline; control distilled water; FIGS. 14, 15A, 15B
Experimental: In an experimental setup, the Galilei Dual Scheimpflug Analyzer from Ziemer was used to perform experiments to detect the presence of Riboflavin in porcine corneas through a filter in front of one of the detectors in the Scheimpflug analyzer. The Dual Scheimpflug Analyzer has two detectors that rotate 180° taking several spokes (ranging from 16 to 60 spokes) of the corneal tissue illuminated by 470 nm light through a slit lamp aperture.
A Straw colored filter (Cinegel, Rosco) is used to filter the exciting light (i.e., the 470 nm light), while allowing the fluorescence (i.e., the 525 nm light) to reach the detector. This is illustrated by the graph shown in FIG. 11B, which illustrates the transmission spectrum for the Straw colored filter utilized.
However, as discussed above, several different substances can be utilized as quenching agents to inhibit the photo-activation of a cross-linking agent, or to degrade the cross-linking agent such that it is no longer photo-active. […] After the pre-soak, the eye was placed in front of the Scheimpflug analyzer and another image (or series of images) was captured to determine the distribution of Riboflavin based on the detected pattern of fluorescence within the cornea. […]
To analyze the effects described above, images from the Scheimpflug image capture system were exported and analyzed. […]

O=C1O[C@H]([C@@H](O)CO)C(O)=C1O [ascorbic acid]
maximum fluorescence intensity observed with the Scheimpflug imager: considerably decreases the maximum fluorescence intensity
